Data: BindingDB's records for doi:10.1016/s0960-894x(01)00005-1 (Graduate School of Bioscience and Biotechnology, 2001)

Experiments:
[1] = Inhibitory activity against peptide binding to the RRE RNA was determined
[2] = Dissociation constant for TAR RNA

Structure (SMILES)	IC50 [1] [nM]	Kd [2] [nM]
N=C(N)NCCCC(N)C(=O)NCC1OC(OC2C(N)CC(N)C(O)C2O)C(N)C(O)C1O [2-Amino-5-guanidino-pentanoic acid [(4R,5S,6S)-5-amino-6-((2R,3R,4R)-4,6-diamino-2,3-dihydroxy-cyclohexyloxy)-3,4-dihydroxy-tetrahydro-pyran-2-ylmethyl]-amide]	460	–
NC1CC(N)C(OC2OC(CNC(=O)c3ccc4ccc5cccc6ccc3c4c56)C(O)C(O)C2N)C(O)C1O [Pyrene-1-carboxylic acid [(4R,5S,6S)-5-amino-6-((2R,3R,4R)-4,6-diamino-2,3-dihydroxy-cyclohexyloxy)-3,4-dihydroxy-tetrahydro-pyran-2-ylmethyl]-amide]	–	290
N=C(N)NCCCC(NC(=O)c1ccc2ccc3cccc4ccc1c2c34)C(=O)NCC1OC(OC2C(N)CC(N)C(O)C2O)C(N)C(O)C1O (stereo not drawn) [Neamine derivative]	–	30
